Data published in ChEMBL document CHEMBL1201862, “PubChem BioAssay data set” (2004).
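A five-concentration, 48-hour dose response in 96-well plates underlies each endpoint, interpolated linearly between surrounding concentrations. Abbreviation: GI50, concentration required for 50% inhibition of growth.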 Activity calls are given as the source filed them. No stated cut-off is given here; in the data, active = GI50 up to about 1.1 µM and inactive = higher.

Tests used:
Assay in all cases: NCI-60 cell line screen, 48 h
ACHN = test system: ACHN
CAKI-1 = test system: CAKI-1
CCRF-CEM = test system: CCRF-CEM
DLD-1 = test system: DLD-1
DU-145 = test system: DU-145
EKVX = test system: EKVX
HCT-15 = test system: HCT-15
HL-60 = test system: HL-60
HOP-92 = test system: HOP-92
M14 = test system: M14
Malme-3M = test system: Malme-3M
NCI-H23 = test system: NCI-H23
NCI-H460 = test system: NCI-H460
OVCAR-5 = test system: OVCAR-5
OVCAR-8 = test system: OVCAR-8
RPMI-8226 = test system: RPMI-8226
SF-268 = test system: SF-268
SF-295 = test system: SF-295
SF-539 = test system: SF-539
T47D = test system: T47D

SMILES	GI50 (ACHN)	GI50 (CAKI-1)	GI50 (CCRF-CEM)	GI50 (DLD-1)	GI50 (DU-145)	GI50 (EKVX)	GI50 (HCT-15)	GI50 (HL-60)	GI50 (HOP-92)	GI50 (M14)	GI50 (Malme-3M)	GI50 (NCI-H23)	GI50 (NCI-H460)	GI50 (OVCAR-5)	GI50 (OVCAR-8)	GI50 (RPMI-8226)	GI50 (SF-268)	GI50 (SF-295)	GI50 (SF-539)	GI50 (T47D)
C/C=C(/C)C(=O)O[C@H]1[C@H](O)CC(c2ccc3c(c2O)C(=O)C2=C(O)C4(OC)C(=O)C(C(N)=O)=C(O)[C@H](CC(=O)c5ccccc5O)C4CC2[C@@]3(C)OC)O[C@@H]1C (stereo not given in full)	4.18 nM (active)	12.4 nM (active)	28.1 nM (active)	10 nM (active)	26.5 nM (active)	39.6 nM (active)	5.07 nM	24.8 nM (active)	21.8 nM (active)	21.3 nM (active)	18.2 nM (active)	7.11 nM (active)	1.78 nM (active)	54.6 nM (active)	4.75 nM (active)	7.85 nM (active)	5.7 nM (active)	17 nM (active)	6.11 nM (active)	11.3 nM (active)
CCNC(=O)/C(=C/c1ccc(OC)cc1)c1cc(OC)c(OC)c(OC)c1	32800 nM (inactive)	6030 nM (inactive)	6790 nM (inactive)	14700 nM (inactive)	13300 nM (inactive)	64100 nM (inactive)	4110 nM	2960 nM (inactive)	28300 nM (inactive)	9290 nM (inactive)	5530 nM (inactive)	13000 nM (inactive)	5310 nM (inactive)	63800 nM (inactive)	21300 nM (inactive)	14000 nM (inactive)	13800 nM (inactive)	2980 nM (inactive)	7870 nM (inactive)	> 20400 nM (inactive)
